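Interpolation was linear, between the two tested concentrations surrounding the appropriate level; five concentrations were tested over 48 hours in 96-well plates. GI50: concentration for 50% inhibition of growth.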 The source made the active and inactive calls. Cut-off read from the data, not from the text of the source: active = GI50 up to about 1.1 µM and inactive = higher. Bounds are passed on as bounds.

Test systems include ACHN; CAKI-1; CCRF-CEM; DU-145; HCT-15; HL-60; MCF7; Malme-3M; NCI-H226; OVCAR-3; OVCAR-4; OVCAR-5; SF-268; SF-295; SN12C; TK-10; U-251; UACC-257; UACC-62; UO-31.
What all share (assay): NCI anticancer screen, dose series, 48 h

In the case of `CCOC(=O)C(C(=S)SC)c1nn2c(=O)cc(C)nc2s1` (stereo not given), the GI50 was 20.2 µM (inactive) with ACHN; 19.9 µM (inactive) with CAKI-1; 29.4 µM (inactive) with CCRF-CEM; 17.9 µM (inactive) in the assay with DU-145; 20.3 µM with HCT-15; 18.1 µM (inactive) in the assay on HL-60. The GI50 in the assay on MCF7 was 17.1 µM (inactive); in the assay with Malme-3M it was 16.4 µM (inactive); with NCI-H226, 17.9 µM (inactive); with OVCAR-3, 20.2 µM (inactive); in the assay on OVCAR-4 it was 23.7 µM (inactive); with OVCAR-5, 20.8 µM (inactive). Also, the GI50 in the assay with SF-268 was 17.7 µM (inactive); in the assay with SF-295 it was 20.3 µM (inactive); in the assay on SN12C it was 16.2 µM (inactive); in the assay on TK-10, 35.1 µM (inactive); in the assay on U-251, 16 µM (inactive); in the assay with UACC-257, 21 µM (inactive). In addition, the GI50 with UACC-62 was 20.4 µM (inactive); in the assay on UO-31, 23 µM (inactive).

With `COc1cc2c3cc1Oc1c(OC)c(OC)cc4c1C(Cc1ccc(O)c(c1)Oc1ccc(cc1)CC3N(C)CC2)CN(C)C4` (stereo not given), the GI50 was 27.4 µM (inactive) in the assay on ACHN; 20.2 µM (inactive) with CAKI-1; 2.07 µM (inactive) in the assay on CCRF-CEM; 17.7 µM (inactive) in the assay on DU-145; 14 µM in the assay on HCT-15; 1.11 µM (active) in the assay with HL-60. Besides, the GI50 in the assay on MCF7 is 16.4 µM (inactive); in the assay with Malme-3M it was 16.8 µM (inactive); in the assay with NCI-H226 it was 28.7 µM (inactive); in the assay with OVCAR-3 it was 15 µM (inactive); with OVCAR-4, 17.6 µM (inactive); in the assay with OVCAR-5 it was 21.5 µM (inactive). Also, the GI50 in the assay with SF-268 is 20.4 µM (inactive); in the assay on SF-295 it was 17.9 µM (inactive); in the assay with SN12C, 15.8 µM (inactive); in the assay with TK-10, 16.1 µM (inactive); in the assay on U-251, 12.3 µM (inactive); in the assay on UACC-257 it was 13.5 µM (inactive). The GI50 with UACC-62 was 18.1 µM (inactive); in the assay on UO-31, 16.1 µM (inactive).

As to `Cc1noc(NS(=O)(=O)c2ccc(NC(=O)c3ccc4nc5ccccc5c(Nc5ccc(S(=O)(=O)Nc6onc(C)c6C)cc5)c4c3)cc2)c1C`, the GI50 with ACHN is > 100 µM (inactive); in the assay on CAKI-1, > 100 µM (inactive); with CCRF-CEM, 42.7 µM (inactive); in the assay with DU-145, > 100 µM (inactive); with HCT-15 it was 58.1 µM; in the assay on HL-60 it was 42.3 µM (inactive). Moreover, the GI50 in the assay with MCF7 was 45.6 µM (inactive); in the assay with Malme-3M it was > 100 µM (inactive); in the assay on NCI-H226, > 100 µM (inactive); with OVCAR-3, 70.3 µM (inactive); with OVCAR-4 it was > 100 µM (inactive); with OVCAR-5, > 100 µM (inactive). Further, the GI50 in the assay on SF-268, with SF-295, in the assay with SN12C, in the assay with TK-10, with U-251 and in the assay on UACC-257 was > 100 µM (inactive) throughout. Besides, the GI50 in the assay on UACC-62 and with UO-31 was > 100 µM (inactive) throughout.

For the compound `CCc1ccccc1N1CCN(C(=O)c2cc(OC)c(OC)c(OC)c2)CC1`, the GI50 in the assay on ACHN is < 0.0137 µM (active); in the assay with CAKI-1, < 0.0205 µM (active); in the assay on CCRF-CEM, 0.0524 µM (active); in the assay with DU-145 it was 0.0207 µM (active); in the assay on HCT-15, 0.0259 µM; in the assay on HL-60 it was 0.0233 µM (active). In addition, the GI50 in the assay with MCF7 was 0.0178 µM (active); in the assay on Malme-3M, 0.0232 µM (active); in the assay on NCI-H226, 0.103 µM (active); in the assay with OVCAR-3, 0.0143 µM (active); with OVCAR-4 it was 1.15 µM (inactive); in the assay on OVCAR-5, 4.14 µM (inactive). Besides, the GI50 in the assay on SF-268 was 0.114 µM (active); with SF-295, 0.0134 µM (active); in the assay with SN12C, 0.184 µM (active); in the assay with TK-10 it was 0.0248 µM (active); with U-251, 0.0316 µM (active); in the assay with UACC-257, 0.0247 µM (active). Also, the GI50 in the assay with UACC-62 was 0.0156 µM (active); in the assay with UO-31, 0.0685 µM (active).

Turning to `CS[C@]12[C@@H]3C(=O)N(C)C(=O)[C@@H]3[C@](C)(C(=O)N1C)C(=O)N2c1ccccc1`, the GI50 in the assay on ACHN was > 100 µM (inactive); in the assay with CAKI-1, > 100 µM (inactive); in the assay with CCRF-CEM, > 100 µM (inactive); with DU-145 it was > 100 µM (inactive); in the assay on HCT-15 it was more than 100 µM; with HL-60 it was > 100 µM (inactive). Moreover, the GI50 with MCF7, with Malme-3M, with NCI-H226, in the assay with OVCAR-3, with OVCAR-4 and with OVCAR-5 was > 100 µM (inactive) each time. Besides, the GI50 in the assay on SF-268, in the assay with SF-295, in the assay on SN12C, with TK-10, with U-251 and with UACC-257 was > 100 µM (inactive) each time. Also, the GI50 in the assay on UACC-62 and in the assay with UO-31 was > 100 µM (inactive) in each case.

For the compound `COc1cc2c[n+](C)c3c4ccccc4ccc3c2cc1OC.COc1cc2cnc3c4ccccc4ccc3c2cc1OC`, the GI50 in the assay on ACHN was 73.1 µM (inactive); with CAKI-1, 58.6 µM (inactive); with CCRF-CEM, 6.47 µM (inactive); in the assay on DU-145, 5.68 µM (inactive); in the assay with HCT-15, more than 100 µM; in the assay on HL-60, 42.7 µM (inactive). In addition, the GI50 with MCF7 was 1.79 µM (inactive); with Malme-3M, 3.21 µM (inactive); in the assay with NCI-H226, 13.1 µM (inactive); in the assay with OVCAR-3 it was 4.13 µM (inactive); in the assay with OVCAR-4, 21.7 µM (inactive); with OVCAR-5 it was 17.3 µM (inactive). Further, the GI50 in the assay with SF-268 is 0.592 µM (active); in the assay on SF-295, 19.6 µM (inactive); in the assay on SN12C, 2.84 µM (inactive); in the assay with TK-10, 26.6 µM (inactive); in the assay on U-251, 3.05 µM (inactive); with UACC-257, 20 µM (inactive). Further, the GI50 was 6.68 µM (inactive) in the assay on UACC-62 and 66.1 µM (inactive) in the assay on UO-31.

With `COc1ccc2nc3cc([N+](=O)[O-])ccc3c(Nc3ccc(S(=O)(=O)N=C(N)N)cc3)c2c1`, the GI50 in the assay on ACHN is 40.9 µM (inactive); in the assay on CAKI-1, 23.3 µM (inactive); in the assay with CCRF-CEM, 11 µM (inactive); in the assay with DU-145 it was 28.8 µM (inactive); in the assay with HCT-15, 36.2 µM; with HL-60, 11.9 µM (inactive). In addition, the GI50 was 9.55 µM (inactive) in the assay with MCF7; 14 µM (inactive) in the assay on Malme-3M; 20.4 µM (inactive) with NCI-H226; 16.5 µM (inactive) in the assay with OVCAR-3; 28.2 µM (inactive) in the assay on OVCAR-4; > 100 µM (inactive) in the assay with OVCAR-5. Further, the GI50 is 28 µM (inactive) in the assay with SF-268; 47.1 µM (inactive) in the assay with SF-295; 48.1 µM (inactive) in the assay with SN12C; 47.2 µM (inactive) with TK-10; 30.5 µM (inactive) with U-251; 51.2 µM (inactive) with UACC-257. In addition, the GI50 in the assay with UACC-62 is 14.6 µM (inactive); in the assay with UO-31, 30.5 µM (inactive).

With `Nc1c2c(nc3ccccc13)-c1ccccc1CCC2`, the GI50 in the assay on ACHN was 13.7 µM (inactive); with CAKI-1 it was 14.4 µM (inactive); in the assay on CCRF-CEM, 13.5 µM (inactive); in the assay with DU-145, 15.5 µM (inactive); in the assay with HCT-15, 14.3 µM; with HL-60, 10.1 µM (inactive). Further, the GI50 with MCF7 is 13.6 µM (inactive); in the assay on Malme-3M it was 14.4 µM (inactive); in the assay with NCI-H226 it was 13.6 µM (inactive); in the assay with OVCAR-3 it was 14.1 µM (inactive); with OVCAR-4 it was 14.4 µM (inactive); in the assay on OVCAR-5, 13 µM (inactive). Moreover, the GI50 was 17.6 µM (inactive) with SF-268; 5.98 µM (inactive) with SF-295; 16.3 µM (inactive) in the assay with SN12C; 10.7 µM (inactive) in the assay on TK-10; 15 µM (inactive) with U-251; 5.94 µM (inactive) with UACC-257. For the same compound, the GI50 is 10.7 µM (inactive) in the assay on UACC-62 and 10.5 µM (inactive) in the assay on UO-31.

`Cc1cc2c(cc1C)C(=O)c1ncccc1C2=O`: the GI50 with ACHN was 37.2 µM (inactive); with CAKI-1, 36.6 µM (inactive); in the assay on CCRF-CEM, 30.4 µM (inactive); in the assay with DU-145, 24.2 µM (inactive); in the assay with HCT-15, 26.5 µM; in the assay on HL-60 it was 11.2 µM (inactive). Further, the GI50 in the assay on MCF7 is 20.2 µM (inactive); with Malme-3M it was 7.85 µM (inactive); in the assay on NCI-H226 it was 40.1 µM (inactive); in the assay with OVCAR-3, 3.06 µM (inactive); with OVCAR-4, 21.9 µM (inactive); with OVCAR-5, 21.1 µM (inactive). Moreover, the GI50 in the assay on SF-268 is 49.3 µM (inactive); in the assay with SF-295, 41.8 µM (inactive); in the assay with SN12C it was 22.6 µM (inactive); with TK-10 it was > 100 µM (inactive); with U-251, 35.7 µM (inactive); in the assay on UACC-257, 18.7 µM (inactive). Besides, the GI50 in the assay with UACC-62 is 30.3 µM (inactive); with UO-31, 37.3 µM (inactive).

As to `Cc1nc2ccc(S(=O)(=O)Nc3ccccc3Cl)cc2c(=O)n1NC(=O)CNc1ccccc1Cl`, the GI50 with ACHN was > 100 µM (inactive); with CAKI-1 it was > 100 µM (inactive); in the assay with CCRF-CEM, > 100 µM (inactive); in the assay with DU-145, > 100 µM (inactive); in the assay on HCT-15, more than 100 µM; in the assay on HL-60, > 100 µM (inactive). Further, the GI50 with MCF7, in the assay with Malme-3M, in the assay with NCI-H226, with OVCAR-3, in the assay with OVCAR-4 and in the assay on OVCAR-5 was > 100 µM (inactive) each time. In addition, the GI50 in the assay on SF-268, in the assay on SF-295, in the assay with SN12C, in the assay on TK-10, with U-251 and in the assay with UACC-257 was > 100 µM (inactive) in each case. For the same compound, the GI50 with UACC-62 and in the assay on UO-31 was > 100 µM (inactive) in each case.
